In patent US12371404B2, “Fused bicyclic alkylene linked imidodicarbonimidic diamides, methods for synthesis, and uses in therapy” (NovaTarg, Inc., priority 2016, dated 2025):
Structures can show the parent of a compound that is named as a salt. Where two headings read alike, the source gives them in different places.

Legend:
human MATE1 = biological target: T1, human MATE1 (Homo sapiens, UniProt Q96FL8); experiment: Oxygen consumption rate (OCR) assay, HEK293 cells transfected with MATE1; conditions: for inhibition at 1000 µM: HEK293, read-out: Oxygen Consumption Rate (OCR), MATE 1, % Inhibition at 1000 μM test concentration
T1 sequence (Q96FL8 1-570): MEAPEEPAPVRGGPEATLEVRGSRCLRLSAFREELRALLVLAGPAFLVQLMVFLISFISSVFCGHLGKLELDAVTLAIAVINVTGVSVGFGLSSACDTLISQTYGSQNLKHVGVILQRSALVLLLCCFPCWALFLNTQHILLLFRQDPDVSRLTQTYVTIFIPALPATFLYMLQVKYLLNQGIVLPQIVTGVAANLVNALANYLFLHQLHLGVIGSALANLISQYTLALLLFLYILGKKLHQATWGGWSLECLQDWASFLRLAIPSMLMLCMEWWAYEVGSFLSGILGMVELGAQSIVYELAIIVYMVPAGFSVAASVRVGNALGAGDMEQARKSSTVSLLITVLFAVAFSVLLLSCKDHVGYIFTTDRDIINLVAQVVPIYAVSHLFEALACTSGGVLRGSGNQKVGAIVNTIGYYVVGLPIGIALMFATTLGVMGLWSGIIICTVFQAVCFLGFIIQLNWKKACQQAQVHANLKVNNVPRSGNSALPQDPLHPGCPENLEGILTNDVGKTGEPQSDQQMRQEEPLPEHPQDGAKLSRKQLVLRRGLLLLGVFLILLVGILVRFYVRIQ
Source text: The compounds of the present invention are similarly tested in an oxygen consumption rate (OCR) assay to evaluate the functional activity of test compounds in cells.
(§1) In brief, the assay uses HEK293 cells stably transfected with the human OCT1, OCT2, OCT3, PMAT, or MATE1 transporters to determine a compound's relative transporter selectivity and its effect on the rate of oxygen consumption relative to control (Neo) cells. The MitoXpress Xtra oxygen-sensitive fluorophore is used to monitor oxygen consumption rates in the presence and absence of compound treatments. The analogs were tested at eight (8) different concentrations in triplicate to determine a relative IC50 value.
(§2) A summary description of the protocol is as follows:
(§3) Cells were incubated overnight to allow attachment. The outer columns (1 and 12) are not seeded with cells, as controls. The next day, plating medium was removed and replaced with 150 μL of assay medium (DMEM/F12 (PRF), 5% FBS, antibiotics) containing compound dilutions. A 3-fold serial dilution was prepared in the assay medium and transferred to the empty wells. The outer columns and column 11 received 150 μL of assay medium only. 10 μL of MitoXpress Xtra reagent was added to each test well, and 100 μL of pre-warmed mineral oil was overlayed in each well to create a seal. Dual read time-resolved fluorescence (BMG FluoStar Galaxy reader) was measured over 2 hours with measurements taken every 2 minutes. Excitation is 340 nm, Emission is 650 nm. For lifetime analysis, two measurements per well were taken: 1) delay of 30 μs, with a window of 30 μs; and 2) delay of 70 μs with a window of 30 μs. Background TRF values from A1-D1 were subtracted from all readings. A ratiometric analysis was performed to determine changes in the Lifetime fluorescence signal:Lifetime (μs) [T]=(D2−D1)/ln(W1/W2), where D is delay; W is fluorescence window value at each time point. Lifetime slopes were calculated using each Lifetime measurement over time. IC50 values were determined by plotting lifetime slope values vs. compound concentration.

control (Neo) cells = experiment: Oxygen consumption rate (OCR) assay, control (Neo) HEK293 cells; format: cell-based; conditions: Homo sapiens, read-out: Oxygen Consumption Rate (OCR) IC50, Neo
Source text: (§4) Diabetologia 2011, 54 (12): 3101-3110, each incorporated by reference with regard to such testing. The compounds of the present invention are similarly tested in an oxygen consumption rate (OCR) assay to evaluate the functional activity of test compounds in cells.
as §1, §2
as §3, with “HEK293 cells transformed with human organic cation transporters were plated in collagen coated, 96-well black-walled microclear plates (Greiner-Bio 1, #655956) at 60,000 cells per well in growth medium (DMEM (LG), 10% FBS, 400 μg/ml G418). Cells” for “Cells”

human PMAT = biological target: T2, human PMAT (Homo sapiens, UniProt Q7RTT9); experiment: Oxygen consumption rate (OCR) assay, HEK293 cells transfected with PMAT; format: cell-based; conditions: for inhibition at 10 µM: HEK293 cells with human PMAT
T2 construct: expressed in transfected cells; host or cells: HEK293
T2 sequence (Q7RTT9 1-530): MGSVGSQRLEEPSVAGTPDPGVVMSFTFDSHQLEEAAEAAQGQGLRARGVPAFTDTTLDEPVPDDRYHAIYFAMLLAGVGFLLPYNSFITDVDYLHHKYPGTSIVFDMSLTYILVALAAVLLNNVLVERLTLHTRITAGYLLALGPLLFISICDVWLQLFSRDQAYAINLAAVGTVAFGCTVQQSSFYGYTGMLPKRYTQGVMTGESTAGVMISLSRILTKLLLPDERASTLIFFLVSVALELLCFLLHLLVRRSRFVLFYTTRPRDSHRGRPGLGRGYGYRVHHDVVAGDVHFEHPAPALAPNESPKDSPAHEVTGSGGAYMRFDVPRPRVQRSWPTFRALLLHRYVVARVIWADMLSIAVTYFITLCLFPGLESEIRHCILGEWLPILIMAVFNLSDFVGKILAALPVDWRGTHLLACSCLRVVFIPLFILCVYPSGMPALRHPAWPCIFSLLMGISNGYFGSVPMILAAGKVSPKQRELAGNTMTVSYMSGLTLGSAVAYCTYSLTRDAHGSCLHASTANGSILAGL
Source text: as §4, §1, §2
as §3, with “HEK293 cells transformed with human organic cation transporters were plated in collagen coated, 96-well black-walled microclear plates (Greiner-Bio 1, #655956) at 60,000 cells per well in growth medium (DMEM (LG), 10% FBS, 400 μg/ml G418). Cells” for “Cells”

[1] = control (Neo) HEK293 cells, MitoXpress Xtra, 2 hours
[2] = HEK293 cells stably transfected with human PMAT, MitoXpress Xtra, 2 hours, read-out: Oxygen Consumption Rate (OCR) IC50, PMAT

| Compound | IC50 (human MATE1) [µM] | IC50 (control (Neo) cells; [1]) [µM] | inhibition at 10 µM (human PMAT) [%] | inhibition at 1000 µM (human MATE1) [%] | IC50 (control (Neo) cells; HEK293, 2 h) [µM] | IC50 (human PMAT) [µM] | IC50 (human PMAT; [2]) [µM] |
| --- | --- | --- | --- | --- | --- | --- | --- |
| N=C(N)NC(=N)NCCc1c[nH]c2ccc(Cl)cc12 [Ex 9, 1-[2-(5-chloro-1H-indol-3-yl)ethyl]imidodicarbonimide diamide, trifluoroacetic acid salt] | 171 | 70 | 53 |  |  |  |  |
| Cc1ccc2[nH]cc(CCNC(=N)NC(=N)N)c2c1 [Ex 10, 1-[2-(5-methyl-1H-indol-3-yl)ethyl]imidodicarbonimide diamide trifluoroacetic acid salt] | 2190 | 439 | 43 |  |  |  |  |
| Cc1c(CCNC(=N)NC(=N)N)c2ccccc2n1C [Ex 16, 1-[2-(1,2-dimethyl-1H-indol-3-yl)ethyl]imidodicarbonimide diamide] |  | 1210 | 36 | 10 |  |  |  |
| N=C(N)NC(=N)NCCc1c[nH]c2ccccc12 [Ex 17, 1-[2-(1H-indol-3-yl)ethyl]imidodicarbonimide diamide hydrochloride] | 4840 | > 5000 | 54 |  |  |  |  |
| N=C(N)NC(=N)NCCc1c[nH]c2ccc([N+](=O)[O-])cc12 [Ex 18, 1-[2-(5-nitro-1H-indol-3-yl)ethyl]imidodicarbonimide diamide, trifluoroacetic acid salt] |  | 1410 | 27 | -26 |  |  |  |
| N=C(N)NC(=N)NCCc1c[nH]c2cccnc12 [Ex 21, 1-(2-(1H-pyrrolo[3,2-b]pyridin-3-yl)ethyl)imidodicarbonimide diamide acetate] | 1540 | > 3000 | 27 |  |  |  |  |
| N=C(N)NC(=N)NCCc1c[nH]c2ccncc12 [Ex 22, 1-(2-(1H-pyrrolo[3,2-c]pyridin-3-yl)ethyl)imidodicarbonimide diamide hydrochloride] | 2980 | 3240 | -7 |  |  |  |  |
| CN(C)C(=N)NC(=N)NCCc1c[nH]c2cc(F)ccc12 [Ex 23, 3-(2-(6-fluoro-1H-indol-3-yl)ethyl)-1,1-dimethyl imidodicarbonimide diamide hydrochloride] | > 10000 | > 3000 | 4 |  |  |  |  |
| Cc1[nH]c2cc(F)ccc2c1CCNC(=N)NC(=N)N [Ex 31, 1-[2-(6-fluoro-2-methyl-1H-indol-3-yl)ethyl]imidodicarbonimide diamide, trifluoroacetic acid salt] | 13400 | 4870 | 35 |  |  |  |  |
| CN(C)C(=N)NC(=N)NCCc1c[nH]c2ccc(C(F)(F)F)cc12 [Ex 32, 3-(2-(5-trifluoromethyl-1H-indol-3-yl)ethyl)-1,1-dimethyl imidodicarbonimide diamide hydrochloride] | 681 | 397 | 10 |  |  |  |  |
| N=C(N)NC(=N)NCCc1c[nH]c2cc(Cl)ccc12 [Ex 35, 1-[2-(6-chloro-1H-indol-3-yl)ethyl]imidodicarbonimide diamide, trifluoroacetic acid salt] | 20 | 205 | 68 |  |  |  |  |
| N=C(N)NC(=N)NCCc1c[nH]c2c(Cl)cccc12 [Ex 36, 1-[2-(7-chloro-1H-indol-3-yl)ethyl]imidodicarbonimide diamide, trifluoroacetic acid salt] | 26 | 409 | 55 |  |  |  |  |
| N=C(N)NC(=N)NCCc1c[nH]c2c(F)c(F)c(F)cc12 [Ex 41, 1-[2-(5,6,7-trifluoro-1H-indol-3-yl)ethyl]imidodicarbonimide diamide, trifluoroacetic acid salt] | 675 |  |  |  | 460 | 6 |  |
| N=C(N)NC(=N)NCCc1c[nH]c2c(F)c(F)c(F)c(F)c12 [Ex 42, 1-[2-(4,5,6,7-tetrafluoro-1H-indol-3-yl)ethyl]imidodicarbonimide diamide, trifluoroacetic acid salt] | 183 |  |  |  | 129 | 5 |  |
| N=C(N)NC(=N)NCCc1c[nH]c2ncc(F)cc12 [Ex 43, 1-(2-(5-fluoro-1H-pyrrolo[2,3-b]pyridin-3-yl)ethyl)imidodicarbonimide diamide, trifluoroacetic acid salt] | 2230 | 11000 |  |  |  |  | 23 |
| N=C(N)NC(=N)NCCc1c[nH]c2nc(F)ccc12 [Ex 45, 1-(2-(6-fluoro-1H-pyrrolo[2,3-b]pyridin-3-yl)ethyl)imidodicarbonimide diamide, trifluoroacetic acid salt] | > 3000 | 11400 |  |  |  |  | 14 |
| N=C(N)NC(=N)NCCc1c[nH]c2cc(Cl)c(F)cc12 [Ex 48, 1-[2-(6-chloro-5-fluoro-1H-indol-3-yl)ethyl]imidodicarbonimide diamide, trifluoroacetic acid salt] | 101 | 210 | 61 |  |  |  |  |
| N=C(N)NC(=N)NCc1c[nH]c2ccccc12 [Ex 55, 1-[(1H-indol-3-yl)methyl]imidodicarbonimide diamide, trifluoroacetic acid salt] | 1650 | 1400 | 10 |  |  |  |  |
| Cc1ccc2c(CCNC(=N)NC(=N)N)c[nH]c2c1 [Ex 56, 1-[2-(6-methyl-1H-indol-3-yl)ethyl]imidodicarbonimide diamide, trifluoroacetate salt] | 769 | 895 | 43 |  |  |  |  |
